PMC10388297, “Mixture-Based Screening of Focused Combinatorial Libraries by NMR: Application to the Antiapoptotic Protein hMcl-1” (Journal of Medicinal Chemistry, 2023)
Values joined by “and” are separate entries in the source; they are usually repeats but may differ in a detail not shown here. Equal values may be shown once. Read-outs that look alike come from different tables or passages of the source. Blank lines part the entries; values can stand above or below the molecule they belong to.

Tests used:
Assay type in all cases: binding
[1] = biological target: T1, hMcl-1 (Homo sapiens, UniProt Q07820); experiment: Isothermal titration calorimetry
T1 construct: His tag (N); made in house; host or cells: E. coli BL21 (DE3) gold pLysS
Procedure: Isothermal titration calorimetry measurements were performed using an Affinity ITC autosampler from TA Instruments (New Castle, DE). The titrations were performed in a direct fashion by titrating the ligand solution into the protein. All the measurements were performed at 25 °C dissolving the agents in 50 mM phosphate at pH 7.5, 150 mM NaCl, and a final DMSO concentration of 1%. To test compound 12, the syringe was filled with a 2 mM solution of compound 12, and 20 injections of 5 μL each were performed into the cell containing a 100 μM solution of the protein. The injections were made at 200 s intervals with a stirring speed of 75 rpm. To test compound 50, the syringe was filled with a 500 μM solution of compound 50, and 20 injections of 5 μL each were performed into the cell containing a 50 μM solution of the protein. The injections were made at 200 s intervals with a stirring speed of 75 rpm. All the solutions were kept in the autosampler at 4 °C. The analysis of the thermodynamics signatures and for dissociation constant determination was performed by NanoAnalyze software (TA Instruments, New Castle, DE) and subsequently exported into Microsoft Excel.

[2] = biological target: T1, hMcl-1; experiment: 1D 1H NMR aliphatic region chemical shift perturbation / titration; conditions: for CSP1 (Table S3) / CSP1 (Table S4): total shift of the two peaks overlapping at -0.616 ppm
Text: (§1) Perturbations observed by ligand binding can be measured and qualitatively used to roughly rank order compound binding, or compound mixtures in this case, in the initial screening campaign (Figure 2). As a control, we used a potent hMcl-1 binding ligand A1210477[37] (Figure 2A).
(§2) NMR spectra were acquired on a Bruker Avance III 700 MHz spectrometer equipped with a TCI cryoprobe. All NMR data were processed and analyzed using TopSpin 4.1.0 (Bruker, Billerica, MA). For the mixture screening, each of the 96 mixtures was dissolved into a 5 mm NMR tube to a final concentration of 2 mM in the presence of 20 μM hMcl-1 in a buffer containing 40 mM Tris pH = 7.5, 150 mM NaCl, and 1 mM DTT. For each mixture, 1D ^1H-aliph experiments were acquired. For ranking purposes, a total chemical shift perturbation generated by each mixture to the five peaks around 0 ppm in the 1D ^1H-aliph spectra of hMcl-1 was considered (Figure 4). 2D-[^13C,^1H]-HSQC experiments were acquired with 20 μM protein using 32 scans with 2048 and 256 complex data points in the ^1H and ^13C dimensions, respectively, at 298 K.

[3] = biological target: T1, hMcl-1; experiment: DELFIA displacement assay, biotinylated BH3 peptide from hMcl-1; conditions: for IC50: hMcl-1 16 nM, room temperature
Procedure: as §1
(§3) Each well of 96-well streptavidin-coated plates (PerkinElmer) was incubated with 100 μL of a 600 ng/mL biotinylated-BH3 peptide of sequence biotin-amino-hexanoic acid-[…]-NH2 for 2 h and washed 3 times with a wash solution (PerkinElmer). Subsequently, a mixture containing 11 μL of protein and a serial dilution of the test compounds as well as 89 μL of an Eu-N1-labeled anti-6x-His antibody (PerkinElmer) was added to each well and incubated for 2 h. Plates were then washed 3 times, and 200 μL of enhancement solution (PerkinElmer) was added to each well. After a 10 min incubation, fluorescence measurements were taken with a Victor X5 microplate reader with the excitation and emission wavelengths of 340 and 615, respectively. All the incubations were performed at room temperature. The final protein concentrations used for hBfl-1 and hMcl-1 were 15 and 16 nM, respectively and the final anti-6x-His antibody used was 22.2 ng/well. Fluorescence readings were normalized to those of 1% DMSO-treated wells and reported as % inhibition. Prism 9 (GraphPad) was used to calculate IC50 values.

[4] = biological target: T2, hBfl-1 (Homo sapiens, UniProt Q16548); experiment: DELFIA displacement assay, hBfl-1; conditions: hBfl-1 15 nM
T2 sequence (Q16548 1-175): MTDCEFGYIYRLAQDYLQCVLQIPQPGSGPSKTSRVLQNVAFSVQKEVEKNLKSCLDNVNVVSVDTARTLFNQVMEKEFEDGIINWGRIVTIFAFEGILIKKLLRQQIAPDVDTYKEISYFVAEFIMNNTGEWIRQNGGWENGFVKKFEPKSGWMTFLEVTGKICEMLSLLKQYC
Procedure: as §3

[5] = biological target: T3, 13Cε-Met-labeled hMcl-1 (Homo sapiens, UniProt Q07820); experiment: 2D [13C,1H] correlation spectra with 13Cε-Met-labeled hMcl-1
T3 construct: His tag (N); made in house; host or cells: E. coli BL21 (DE3) gold pLysS
Text: To further corroborate the possible binding location and pose of the agent, we collected NMR experiments with a selectively ^13C^ε-Met-labeled hMcl-1.[1] In the sequence of hMcl-1, there are 4 Met residues, where two located outside the biding pocket, namely, Met 170 and Met 199, while two Met residues are directly present in the BH3 binding pocket, namely, Met 231 and Met 250 (Figure 8). […] Smaller yet still relatively large perturbations were also observed in the resonances of Met 250, located also across the indole in our model but not as directly juxtaposed as Met 231 with our ligand (Figure 8). […] This piece of data supports the location of the binding of our agent and possibly also corroborates its predicted binding pose.
as §2, with “2D-[^13C,^1H]-HSQC experiments were acquired with 20 μM protein using 32 scans with 2048 and 256 complex data points in the ^1H and ^13C dimensions, respectively, at 298 K.” left out

[6] = 25 °C, pH 7.5, 1% DMSO, read-out: Kd by isothermal titration calorimetry
[7] = supplementary CSV, values match ITC, read-out: Kd (uM) (n=2)

T1 sequence (Q07820 172-323): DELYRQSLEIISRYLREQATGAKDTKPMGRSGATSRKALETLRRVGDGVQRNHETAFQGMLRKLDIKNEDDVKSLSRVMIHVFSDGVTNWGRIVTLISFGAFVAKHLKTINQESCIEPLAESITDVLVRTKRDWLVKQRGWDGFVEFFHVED
T3 sequence (Q07820 172-323): as above

SMILES: COc1cc(C)c(C(C)C)cc1S(=O)(=O)N[C@H](CC(=O)O)C(=O)N[C@@H](CC1CCCCC1)C(N)=O [Compound 12, (R)-4-(((S)-1-Amino-3-cyclohexyl-1-oxopropan-2-yl)amino)-3-((5-isopropyl-2-methoxy-4-methylphenyl)sulfonamido)-4-oxobutanoic Acid]
Kd [1, 6]: ~450 µM | dissociation constant estimated by NMR titration ([2]; 1D 1H NMR, hMcl-1 20 μM): triple-digit micromolar | CSP1 (Table S3) ([2]; listed as Compound (12)): ++ (0.05 ppm < CSP < 0.1 ppm)

SMILES: COc1cc(C)c(C(C)C)cc1S(=O)(=O)N[C@H](CCC(=O)O)C(=O)N[C@@H](CC1CCCCC1)C(N)=O [Compound 15]
CSP1 (Table S3) [2]: + (0.01 ppm < CSP < 0.05 ppm)

SMILES: COc1cc(C)c(C(C)C)cc1S(=O)(=O)N[C@@H](CCC(=O)O)C(=O)N[C@@H](CC1CCCCC1)C(N)=O [Compound 14]
CSP1 (Table S3) [2]: + (0.01 ppm < CSP < 0.05 ppm)

SMILES: Cc1nn(C)c(COc2ccc(N3CCN(S(=O)(=O)N(C)C)CC3)cc2)c1-c1cccc2c(CCCOc3cccc4ccccc34)c(C(=O)O)n(CCN3CCOCC3)c12 [Compound A1210477]
LE ([3]; from DELFIA IC50): ~0.17 | IC50 ([3]; read-out: IC50, displacement of biotinylated BH3 peptide from hMcl-1 (DELFIA)): 0.014 µM

Further lines, results first:

Kd [1, 6]: 2.84 ± 0.67 µM | Kd [1, 7]: 2.84 ± 0.7 µM
SMILES: COc1ccc(C(C)C)cc1S(=O)(=O)NC(CC(=O)O)C(=O)N1C(C(=O)NC(Cc2c[nH]c3ccccc23)C(N)=O)CC2CCCCC21 (stereo not shown) [Compound 60]

Kd [1, 6]: 4.62 ± 0.37 µM | Kd [1, 7]: 4.62 ± 0.4 µM
SMILES: COc1ccc2[nH]cc(CC(NC(=O)C3CC4CCCCC4N3C(=O)C(CC(=O)O)NS(=O)(=O)c3cc(C(C)C)c(C)cc3OC)C(N)=O)c2c1 (stereo not shown) [Compound 59]

CSP1 (Table S3) ([2]; listed as Compound (13)): + (0.01 ppm < CSP < 0.05 ppm)
SMILES: COc1cc(C)c(C(C)C)cc1S(=O)(=O)N[C@H](CC(=O)O)C(=O)N[C@@H](CC1CCCCC1)C(N)=O [Compound 13]

activity against hBfl-1 in DELFIA displacement assay [4]: inactive | koff ([5]; 20 μM 13Cε-Met hMcl-1, read-out: koff, estimated upper limit from Met 231 chemical shift differences (slow exchange)): < 519 s⁻¹ | dissociation constant corresponding to off-rate ([5]; assuming diffusion limited on rate of 10^9 M^–1 s^–1): low micromolar | ΔH, isothermal titration calorimetry ([1]; 25 °C): -10 kcal/mol | Kd [1, 6]: ~2 µM and 1.71 µM | LE ([1]; from ITC Kd): ~0.16 | Kd [1, 7]: 1.71 ± 0.3 µM | IC50 ([3]; read-out: IC50, displacement of biotinylated-BIM peptide from hMcl-1 (DELFIA)): 7.5 µM | CSP2 (Table S4) ([2]; shift of the peak at -0.08 ppm, 1D-1H-aliphatic spectrum): + (0.01 ppm < CSP < 0.05 ppm) | CSP1 (Table S4) [2]: +++ (0.1 ppm < CSP < 0.13 ppm)
SMILES: COc1cc(C)c(C(C)C)cc1S(=O)(=O)NC(CC(=O)O)C(=O)N1C(C(=O)NC(Cc2c[nH]c3ccccc23)C(N)=O)CC2CCCCC21 [Compound 50, (3R)-4-((2S)-2-(((S)-1-Amino-3-(1H-indol-3-yl)-1-oxopropan-2-yl)carbamoyl)octahydro-1H-indol-1-yl)-3-((5-isopropyl-2-methoxy-4-methylphenyl)sulfonamido)-4-oxobutanoic Acid]

CSP in the 1D-1H-aliphatic region of hMcl-1, comparison among P4 compounds ([2]; 20 μM hMcl-1, compound 100 μM): bigger CSP | Kd ([2]; 1D 1H NMR, hMcl-1 20 μM, read-out: dissociation constant estimated by NMR titration): ~30 µM | CSP1 (Table S4) [2]: +++ (0.1 ppm < CSP < 0.13 ppm)
SMILES: COc1cc(C)c(C(C)C)cc1S(=O)(=O)N[C@H](CC(=O)O)C(=O)N[C@@H](CC1CCCCC1)C(=O)N[C@H](Cc1c[nH]c2ccccc12)C(N)=O [Compound 21, (R)-4-(((S)-1-(((R)-1-Amino-3-(1H-indol-3-yl)-1-oxopropan-2-yl)amino)-3-cyclohexyl-1-oxopropan-2-yl)amino)-3-((5-isopropyl-2-methoxy-4-methylphenyl)sulfonamido)-4-oxobutanoic Acid]
